Source: patent US12534699B2, “Method for promoting growth of bacteria of genus Bifidobacterium” (KABUSHIKI KAISHA YAKULT HONSHA, priority 2019, dated 2026)

Tests used:
Type in all cases: cell-based
[1] = tested on: Bifidobacterium bifidum YIT 10347 (BF-1); assay: Culture of BF-1 in skimmed milk culture medium with L-cystine or L-cysteine; conditions: for viable cell count and acidity versus culture medium not containing L-cystine and L-cysteine: BF-1, simultaneous heating culture medium (skimmed milk or whey), 0.001 to 0.1% (w/v), FIGS. 5 and 6; for concentration at which the viable cell count was maximum: BF-1, skimmed milk simultaneous heating culture medium, 12 hours
Protocol: (§1) Bifidobacterium breve YIT 12272 (hereinafter, referred to as BbY), Bifidobacterium bifidum YIT 10347 (hereinafter, referred to as BF-1), Lactobacillus casei YIT 9029 (hereinafter, referred to as YIT 9029), and Lactobacillus acidophilus YIT 0198 (hereinafter, referred to as YIT 0198) were used.
A skimmed milk powder (ABC, manufactured by MEGMILK SNOW BRAND Co., Ltd.) was dissolved in RO water at 12% (w/v), the solution was dispensed in 10 mL aliquots in a rimmed medium-sized test tube while replacing the headspace with nitrogen gas and sealed with a butyl rubber stopper. Subsequently, the solution was sterilized by heat in an autoclave (SX-500, manufactured by Tomy Seiko Co., Ltd.) at 115° C. for 30 minutes to provide a skimmed milk culture medium (additive-free culture medium). In addition, a skimmed milk culture medium (simultaneous heating culture medium) was prepared in anaerobic conditions by adding an L-cystine (manufactured by Kyowa Hakko Bio Co., Ltd.) aqueous suspension or an L-cysteine hydrochloride (manufactured by Nichiri Kagaku Co., Ltd.) aqueous solution to a skimmed milk culture medium at a final concentration of 0.05 (w/v) % and performing heat sterilization after the addition of the suspension or the solution, and a skimmed milk culture medium (individual heating culture medium) was prepared in anaerobic conditions by adding the suspension or the solution to a skimmed milk culture medium at a final concentration of 0.05 (w/v) % after heat sterilization and immediately before inoculation. Here, the L-cystine aqueous suspension and the L-cysteine hydrochloride aqueous solution were prepared as a 5% (w/v) aqueous suspension and a 5% (w/v) aqueous solution, respectively, and were added to each culture medium at an amount of 1% (v/v). In order to unify the changes in the concentration and the changes in the redox potential of samples due to the addition of the solution, 1% (v/v) of sterilized water was added to the simultaneous heating culture medium immediately before inoculation, to the individual heating culture medium before heating, and to the additive-free culture medium before heating and immediately before inoculation, i.e., twice.
When bacteria were inoculated, inoculation was performed while replacing the headspace of the container with nitrogen gas, and the nitrogen gas was sealed with a butyl rubber stopper, followed by culture. The culture was performed in a thermostat water bath set to 37° C. for 12 hours.
The pH of a culture medium or a bacterial solution was measured using a desk-top pH meter (F52, manufactured by HORIBA, Ltd.).
The amount of a 0.1 N sodium hydroxide aqueous solution for 9.0 g of a bacterial solution required to reach a pH of 8.5 was defined as acidity. The measurement was performed using an automatic titrator (manufactured by HIRANUMA Co., Ltd.).
Regardless of the bacterial strain, a bacterial solution was appropriately diluted with a 0.85% (w/v) sodium chloride aqueous solution (physiological saline solution). The diluted bacterial solution was inoculated with a spiral plater EDDY JET (manufactured by IUL Instruments GmbH) on a plate culture medium of TOS propionate agar medium (manufactured by Yakult Pharmaceutical Industry Co., Ltd.) in the case of bacteria of the genus Bifidobacterium and a plate culture medium of BCP Added Plate Count medium (manufactured by EIKEN CHEMICAL CO., LTD.) in the case of bacteria of the genus Lactobacillus, followed by culture at 37° C. for 48 to 72 hours. The grown colonies were counted as the viable cell count. The bacteria of the genus Lactobacillus were cultured in aerobic conditions, and the bacteria of the genus Bifidobacterium were cultured in anaerobic conditions (Anaero Pack, manufactured by MITSUBISHI GAS CHEMICAL COMPANY, INC.). Colonies were counted using a colony counter ProtoCOL (manufactured by Synoptics Ltd.).
As in Example 1, each simultaneous heating culture medium of milk and L-cystine or L-cysteine was prepared. […]

[2] = tested on: Lactobacillus casei YIT 9029; assay: Culture of YIT 9029 in skimmed milk culture medium with L-cystine or L-cysteine; conditions: YIT 9029, skimmed milk culture medium, 0.05 (w/v) %, 37° C., 12 hours, FIG. 1
Protocol: as §1
A skimmed milk powder (ABC, manufactured by MEGMILK SNOW BRAND Co., Ltd.) was dissolved in RO water at 12% (w/v), the solution was dispensed in 10 mL aliquots in a rimmed medium-sized test tube while replacing the headspace with nitrogen gas and sealed with a butyl rubber stopper. Subsequently, the solution was sterilized by heat in an autoclave (SX-500, manufactured by Tomy Seiko Co., Ltd.) at 115° C. for 30 minutes to provide a skimmed milk culture medium (additive-free culture medium). […]
The pH of a culture medium or a bacterial solution was measured using a desk-top pH meter (F52, manufactured by HORIBA, Ltd.). […]
Regardless of the bacterial strain, a bacterial solution was appropriately diluted with a 0.85% (w/v) sodium chloride aqueous solution (physiological saline solution). […] The grown colonies were counted as the viable cell count. […] Colonies were counted using a colony counter ProtoCOL (manufactured by Synoptics Ltd.).

[3] = tested on: Bifidobacterium bifidum YIT 10347 (BF-1); assay: Culture of BF-1 in whey culture medium with L-cystine or L-cysteine; conditions: BF-1, whey simultaneous heating culture medium, 12 hours
Protocol: A skimmed milk powder was dissolved in RO water at 12% (w/v), and the 12% (w/v) skimmed milk was adjusted to a pH of 4.6 with 5 N HCl, followed by centrifugation at 3,000×g for 5 minutes. Subsequently, the supernatant was adjusted to a pH of 6.5 with 5 N NaOH and was centrifuged at 10,000×g for 15 to 30 minutes. The supernatant was dispensed in 10 mL aliquots in a rimmed medium-sized test tube while replacing the headspace with nitrogen gas and sealed with a butyl rubber stopper. Subsequently, the supernatant was sterilized by heat in an autoclave at 115° C. for 30 minutes to provide a whey culture medium separated before heating. In addition, as in the skimmed milk culture medium, simultaneous heating culture medium was prepared in anaerobic conditions by adding L-cystine or L-cysteine before heating and then performing heat sterilization. The addition concentration of L-cystine or L-cysteine was adjusted to 0.001, 0.003, 0.005, 0.01, 0.03, 0.05, or 0.1% (w/v) as the final concentration.
Inoculation and culture were performed as in Example 1 except that only when BbY was cultured in the skimmed milk culture medium, the culture time was 9 hours.

[4] = BF-1, skimmed milk, 0.05 (w/v) %, cultured 12 hours

SMILES | viable cell count and acidity versus culture medium not containing L-cystine and L-cysteine [1] | concentration at which the viable cell count was maximum [1] | growth promotion by addition [2] | concentration at which the viable cell count was maximum [3] | acidity higher with simultaneous heating than individual heating [1, 4] [times] | viable cell count higher with simultaneous heating than individual heating [1, 4] [times]
Cl.N[C@@H](CS)C(=O)O [L-cysteine, L-cysteine hydrochloride] | increased | 0.05 % (w/v) | not observed | 0.03 % (w/v) |  | 
N[C@@H](CSSC[C@H](N)C(=O)O)C(=O)O [L-cystine] | increased | 0.1 % (w/v) | not observed | 0.03 % (w/v) | 1.3 | 4.5
